# Measured values published in US20020039567A1, “Methods of treating bone or cartilage conditions by the administration of creatine” (priority 1998, published 2002).
# Legend:
# [1] = test system: osteoblasts (monolayer culture); assay: Alkaline phosphatase activity (histochemically), monolayer osteoblast cell culture; format: cell-based, rat; conditions: 3 weeks
# Experimental: This isolation technique is based on the ability of osteoblasts to migrate from bone onto a substratum. Parietal and frontal calvariae (4 per animal) were aseptically explanted from 6 day-old IcoIbm rats. The calvariae were placed in Tyrode's balanced salt solution, calcium and magnesium free (TESS). The periosteum was enzymatically removed with 0.05% trypsin and 0.02% collagenase A (0.76 U/mg) dissolved in TBSS (40 calvaria/20 ml). The calvariae were shaken for 70 minutes in a waterbath at 37° C. They were washed with TESS and then transferred to 60 mm culture dishes (40 calvariae/dish) containing 5 ml of 0.02% collagenase A (0.76 U/mg) in culture medium BGJb Fitton-Jackson modification and placed in the incubator for 4 hours. The calvariae were then washed with culture medium B supplemented with 10% foetal calf serum (FCS). The calvariae were transferred into 60 mm culture dishes (4 frontal and 4 parietal/dish). The growth medium supplemented with 10% FCS and 50 μg/ml ascorbate was completely changed every 48 hours. The culture was kept for 3 weeks. After 3 weeks the migrated cells were harvested. The dish was washed with TESS, and 5 ml of TESS containing 0.05% trypsin and 0.02% collagenase A (0.76 U/mg) was added. […] The viability of the resuspended cells was examined by the dye exclusion of 0.4% trypan blue, and the cells were counted in a haeinocytometer. […]
# epiphyseal growth plate = conditions: feeding rats with GPA; cited from earlier work
# cultured chondrocytes = conditions: cited from earlier work
# [2] = test system: osteoblasts (monolayer culture); assay: Cell viability (neutral red uptake), monolayer osteoblast cell culture; format: cell-based, rat
# Experimental: This isolation technique is based on the ability of osteoblasts to migrate from bone onto a substratum. Parietal and frontal calvariae (4 per animal) were aseptically explanted from 6 day-old IcoIbm rats. The calvariae were placed in Tyrode's balanced salt solution, calcium and magnesium free (TESS). The periosteum was enzymatically removed with 0.05% trypsin and 0.02% collagenase A (0.76 U/mg) dissolved in TBSS (40 calvaria/20 ml). The calvariae were shaken for 70 minutes in a waterbath at 37° C. They were washed with TESS and then transferred to 60 mm culture dishes (40 calvariae/dish) containing 5 ml of 0.02% collagenase A (0.76 U/mg) in culture medium BGJb Fitton-Jackson modification and placed in the incubator for 4 hours. The calvariae were then washed with culture medium B supplemented with 10% foetal calf serum (FCS). The calvariae were transferred into 60 mm culture dishes (4 frontal and 4 parietal/dish). The growth medium supplemented with 10% FCS and 50 μg/ml ascorbate was completely changed every 48 hours. The culture was kept for 3 weeks.
# After 3 weeks the migrated cells were harvested. The dish was washed with TESS, and 5 ml of TESS containing 0.05% trypsin and 0.02% collagenase A (0.76 U/mg) was added. After 1 hour in the incubator, the dish was washed with culture medium BGJb supplemented with 10% FCS. The dishes containing the calvariae and cells were rinsed with serum containing media BGJb. The cells obtained were filtered through a 40 μm nylon mesh to remove bone debris and cell aggregates. The suspended cells were centrifuged at 600 g for 5 minutes. The cell pellet was resuspended in serum containing medium BGJb and centrifuged. The viability of the resuspended cells was examined by the dye exclusion of 0.4% trypan blue, and the cells were counted in a haeinocytometer. The inoculation densities were 2·10^5/10 cm^2 for monolayer and 2·10^5/30 μl for micromasses. The micromass cultures were kept for 1 hour in the incubator before 2 ml growth medium was added.
# All the cultures were kept at 37° C. in a humidified atmosphere of 5% CO2, 95% air. All culture media were supplemented with 50 μg/ml ascorbate. To analyze the collagen types, 60 μg/ml beta-aminopropionitrile (beta-APN) was added to the culture medium. During cell isolation and inoculation, no ascorbate was used to increase plating efficiency. No antibiotics and no beta-glycerophosphate were added. The media were completely changed every 48 hours (60 mm culture dish 5 ml; 35 mm culture dish 2 ml).
# The method described in (Lindl et al. 1994) was used.
# The uptake of NR into lysosomes is […] the metabolic status of the cell.
# 0.5 mg Neutral red/ml growth medium, warmed up to 37° C. for at least 2 hours,
# 50% ethanol in 1% acetic acid
# 1. The cells were incubated in 2 ml/10 cm^2NR solution at 37° C. for 3 hours.
# 2. The supernatant was removed,
# 3. washed with PBS, at least 3 times, until no crystals were present.
# 4. Addition of 4 ml/10 cm^2 extraction buffer.
# 5. The absorbance of the supernatant (3 aliquots/dish) was read at 540 nm versus extraction buffer.
# 6. If the absorbance was higher than 1, the samples were diluted with extraction buffer.
# The mean value and the standard deviation consisted of n independent experiments. The values for the individual experiments were gained from the mean of 3 aliquots of the same dish. To compare the treatment, contrasts analysis of variance models were evaluated.
Structure (SMILES),cell density around the nodules ([1]; GPA groups),"staining pattern for the ALP activity ([1]; higher magnification, compared with control and creatine groups)",epiphyseal growth plate morphology (epiphyseal growth plate),synthesis of pro-a type II and type X collagen (cultured chondrocytes),"NR uptake (FIG. 1) ([2]; 10 mM and 20 mM creatine vs control, 1 and 2 weeks)",toxic effect (from NR uptake) ([2]; 10 mM creatine),"NR uptake (FIG. 1), difference to control ([2]; 10 mM creatine vs control, 3 weeks)","NR uptake (FIG. 1) ([2]; 10 mM creatine, 3 weeks compared to 1 week, p<0.02)","NR uptake (FIG. 1) ([2]; 20 mM creatine vs control, 3 weeks, p<0.008)","toxic effect (from NR uptake) ([2]; 20 mM creatine, 3 weeks)"
"N=C(N)NCCC(=O)O [GPA, beta-guanidinopropionic acid]",lower than in the control and the creatine groups,different staining pattern,marked abnormalities,interferes with the synthesis,–,–,–,–,–,–
CN(CC(=O)O)C(=N)N [creatine],–,–,–,–,no significant difference between the groups,no toxic effect,not significant,significantly higher,significantly lowered NR uptake,some toxic effects on the proliferation of the cells
